Measured values as given in ChEMBL document CHEMBL1201862, “PubChem BioAssay data set” (2004).
Active and inactive are the calls of the source.

Assays:
[1] = Luminescence Cell-Based Dose Retest to Confirm Inhibitors of Cancer Stem Cells. [Related pubchem assays (depositor defined):AID2717, AID2721]; type: functional; settings: Homo sapiens
[2] = viability loss of HMLE_sh_eGFP cells – cell-based, luminescence, counter-screen for HMLE_sh_ECad selective toxicity project, dose response (AID 463074); type: functional, Homo sapiens;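 also: HMLE human mammary epithelial cells expressing control shRNA against eGFP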
[3] = decrease of insulin promoter-GFP reporter – imaging, high-content screening, mouse beta cells (AID 1628); type: functional; settings: MIN6
[4] = test system: Streptococcus sp. 'group A'; assay: Streptococcus pyogenes SK(-)GAS viability under kanamycin – luminescence, BacTiterGlo, confirmation, counter-screen for streptokinase expression inhibitor project, dose response (AID 1900); type: functional, organism-based
cells [5] = type: functional, cell-based
[6] = MIN6 cell viability loss – mouse insulinoma, cytotoxicity control, dose response (AID 2122); type: functional;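 also: confirmatory high-throughput counterscreen run to flag cytotoxic compounds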
Streptokinase A = target: T1, Streptokinase A (Streptococcus pyogenes serotype M1, UniProt P10520); assay: viability-normalized secreted streptokinase activity reduction – plasminogen activation absorbance, OD405, dose response (AID 1914); type: functional, Streptococcus pyogenes M1 GAS;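 also: secreted streptokinase activity via plasminogen activation per viability signal from cell pellet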
T1 sequence (P10520 whole entry): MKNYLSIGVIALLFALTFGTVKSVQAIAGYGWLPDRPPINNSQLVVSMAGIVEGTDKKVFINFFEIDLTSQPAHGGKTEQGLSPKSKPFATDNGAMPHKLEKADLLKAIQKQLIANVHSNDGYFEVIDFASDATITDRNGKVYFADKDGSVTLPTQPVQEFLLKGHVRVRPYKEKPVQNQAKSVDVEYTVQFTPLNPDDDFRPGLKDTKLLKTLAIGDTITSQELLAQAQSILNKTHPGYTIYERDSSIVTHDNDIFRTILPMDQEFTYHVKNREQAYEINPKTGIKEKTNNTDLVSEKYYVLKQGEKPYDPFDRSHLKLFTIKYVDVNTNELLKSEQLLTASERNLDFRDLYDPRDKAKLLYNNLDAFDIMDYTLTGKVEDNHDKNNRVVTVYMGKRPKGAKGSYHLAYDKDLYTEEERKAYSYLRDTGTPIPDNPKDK

[7] = Trypanosoma cruzi growth suppression in host cells – NIH3T3 host cells, beta-gal luminescence, confirmation (AID 2044); type: functional, cell-based;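 also: intracellular parasites grown in NIH/3T3 mouse fibroblasts as host cells; luminescent beta-galactosidase reporter signal from transgenic T. cruzi replicating inside host cells; inhibitors lower the luminescence signal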
cells [8] = type: functional, cell-based; remark: listed apart in the source
[9] = NIH3T3 cell viability loss – ATP luminescence, mouse fibroblasts, counter-screen, dose response (AID 2010); type: functional, cell-based;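 also: cells exposed to compound for about 90 hours before reading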
Streptococcus = assay: GAS UMAA2166 growth inhibition – luminescence, BacTiterGlo, counter-screen for streptokinase expression inhibitor project, dose response (AID 1915); type: functional, organism-based;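 also: potency for reduction of bacterial viability or growth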
[10] = target: T2, Type-1 angiotensin II receptor (Homo sapiens, UniProt P30556); assay: agonist activity at AGTR1 – cell-based, uHTS hits, selectivity assay for APJ receptor agonist project, dose response (AID 488865); type: functional;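 also: beta-arrestin recruitment to AT1 measured by enzyme fragment complementation luminescence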
T2 sequence (P30556 whole entry): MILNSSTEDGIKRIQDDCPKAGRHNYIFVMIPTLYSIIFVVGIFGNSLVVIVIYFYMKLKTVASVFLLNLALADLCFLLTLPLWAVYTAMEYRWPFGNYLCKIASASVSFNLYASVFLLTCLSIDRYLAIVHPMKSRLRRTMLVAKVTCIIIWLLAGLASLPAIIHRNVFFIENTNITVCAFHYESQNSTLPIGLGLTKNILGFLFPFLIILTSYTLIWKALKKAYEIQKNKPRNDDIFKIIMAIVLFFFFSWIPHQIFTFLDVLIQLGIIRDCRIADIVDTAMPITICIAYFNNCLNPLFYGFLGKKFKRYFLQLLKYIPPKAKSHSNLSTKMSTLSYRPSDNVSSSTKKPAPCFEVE

INS1 = assay: INS-1E survival protection against cytokine death – cell-based, luminescence, retest, dose response (AID 449756); type: functional; settings: Rattus norvegicus;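 also: cell death triggered by IL-1 beta plus TNF-alpha plus IFN-gamma mixture; protective hits raise ATP signal compared with cytokine alone wells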
[11] = reduction of Shn3 3'UTR-driven luciferase in osteoblasts – cell-based, Clone20 osteoblasts, firefly luciferase, cherry-picked, dose response (AID 624132); type: functional;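 also: firefly luciferase luminescence from reporter carrying the Shn3 3'UTR in osteoblasts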
[12] = loss of viability in HepG2 cells – cell-based, CellTiter-Glo, cherry-picked, cytotoxicity control for Shn3 inhibitor project, dose response (AID 624134); type: functional
[13] = non-specific 3'UTR reporter inhibition in Clone20-Shn3RL – cell-based, Renilla luciferase, cherry-picked, counter-screen for Shn3 inhibitor project, dose response (AID 624133); type: functional
[14] = target: T3, Probable nicotinate-nucleotide adenylyltransferase (Staphylococcus aureus (strain N315), UniProt P65502); type: functional, Staphylococcus aureus subsp. aureus N315;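 as to IC50 Mean: confirmatory dose-response retesting of NadD inhibitor hits first found in an ultra-high-throughput screen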
[15] = target: T3, Probable nicotinate-nucleotide adenylyltransferase; type: functional, Staphylococcus aureus subsp. aureus N315; settings: read-out: IC50_Mean
Paired box protein Pax-8 = Paired box protein Pax-8 (Homo sapiens, UniProt Q06710); assay: PAX8 transcriptional activity inhibition in RMG-I – RMG-I cells, luciferase, cherry-pick, dose response (AID 687027); type: functional, cell-based;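 also: luciferase reporter driven by Pax8 target thyroperoxidase promoter measured by SteadyGlo luminescence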
[16] = inhibitors acting on PAX2 in cells – cell-based, plate reader, dry powder samples, selectivity assay for PAX8 inhibitor project, dose response (AID 743048); type: functional;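 also: HEK293 cells carrying a WT1 promoter luciferase reporter driven by expressed Pax2; potency is for inhibition of Pax2 driven reporter signal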
[17] = COV362 cell viability loss – plate reader, dry powder, SA12, cytotoxicity control for PAX8 inhibitor project, dose response (AID 743144); type: functional, cell-based
[18] = toxicity toward immortalized ovarian surface epithelium – cell-based, plate reader, dry powder samples, cytotoxicity control for PAX8 inhibitor project, dose response (AID 743045); type: functional
[19] = A2780 cell killing – plate reader, dry powder samples, cytotoxicity control, dose response (AID 743046); type: functional, cell-based
[20] = OVCAR-3 cell viability loss – plate reader, dry powder samples, PAX8 inhibitor project, dose response (AID 743044); type: functional, cell-based
[21] = PAX5 cellular inhibition readout – cell-based, plate reader, dry powder samples, selectivity assay for PAX8 inhibitor project, dose response (AID 743047); type: functional;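 also: HEK293 cells carrying a Pax5 driven CD19 promoter luciferase reporter; potency of inhibitors that lower reporter luminescence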
[22] = IGROV1 cell killing – plate reader, dry powder samples, PAX8 inhibitor project, dose response (AID 743043); type: functional, cell-based; settings: IGROV-1
[23] = OVCAR4 cell viability loss – plate reader, dry powder, SA11, cytotoxicity control for PAX8 inhibitor project, dose response (AID 743150); type: functional, cell-based; settings: OVCAR-4
[24] = COV434 cell viability loss – plate reader, dry powder, SA7, cytotoxicity control for PAX8 inhibitor project, dose response (AID 743145); type: functional, cell-based
[25] = OV-90 cell viability loss – plate reader, dry powder, SA8, PAX8 inhibitor project, dose response (AID 743149); type: functional, cell-based
[26] = PAX8-dependent cell viability loss – plate reader, dry powder, dose response (AID 743049); type: functional, cell-based
Escherichia coli = assay: microbe, parasite or virus in culture
[27] = target: T4, RNA-binding protein pos-1 (Caenorhabditis elegans, UniProt G5EF15); assay: disruptors of C. elegans POS-1 RNA interaction – biochemical, fluorescence polarization, dose response (AID 1964);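 also: purified POS-1 fused to maltose binding protein made in E. coli; potency of compounds blocking POS-1 binding to fluorescent RNA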
T4 sequence (G5EF15 whole entry): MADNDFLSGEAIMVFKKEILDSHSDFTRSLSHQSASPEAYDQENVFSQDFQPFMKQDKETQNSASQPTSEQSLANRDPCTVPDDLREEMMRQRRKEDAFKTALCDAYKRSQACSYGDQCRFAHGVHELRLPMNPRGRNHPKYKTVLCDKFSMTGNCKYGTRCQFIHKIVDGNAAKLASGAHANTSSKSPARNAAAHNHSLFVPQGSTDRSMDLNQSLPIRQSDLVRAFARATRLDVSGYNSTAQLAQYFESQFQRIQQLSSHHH

[28] = target: T5, Zinc finger protein mex-5 (Caenorhabditis elegans, UniProt Q9XUB2); assay: potency of MEX-5 RNA-binding blockers – biochemical, C. elegans, fluorescence polarization, dose response (AID 1960)
T5 sequence (Q9XUB2 whole entry): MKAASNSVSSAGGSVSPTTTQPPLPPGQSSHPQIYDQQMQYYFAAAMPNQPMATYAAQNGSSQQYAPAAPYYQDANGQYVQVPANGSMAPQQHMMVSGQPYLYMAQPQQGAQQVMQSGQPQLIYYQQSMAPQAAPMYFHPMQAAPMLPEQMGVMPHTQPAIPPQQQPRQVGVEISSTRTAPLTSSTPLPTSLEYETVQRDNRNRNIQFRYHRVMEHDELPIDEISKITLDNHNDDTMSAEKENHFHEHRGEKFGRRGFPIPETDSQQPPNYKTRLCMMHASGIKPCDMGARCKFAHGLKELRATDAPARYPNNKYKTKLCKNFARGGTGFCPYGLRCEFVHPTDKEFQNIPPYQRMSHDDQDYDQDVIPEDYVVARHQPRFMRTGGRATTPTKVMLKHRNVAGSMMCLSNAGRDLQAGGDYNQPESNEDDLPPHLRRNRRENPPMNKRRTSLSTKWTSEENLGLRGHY

[29] = target: Luciferin 4-monooxygenase (Photinus pyralis, UniProt P08659); assay: inhibition of purified Photinus pyralis luciferase – biochemical, luminescence, dose response (AID 1891)
[30] = target: Peroxisome proliferator-activated receptor gamma/Nuclear receptor corepressor 2 (Homo sapiens, UniProt P37231+Q9Y618); assay: Counterscreen for NR2E3 inverse agonists: TR-FRET-based biochemical high throughput dose response assay to identify inverse agonists of the interaction between peroxisome proliferator-activated receptor gamma (PPARg) and nuclear receptor co-repressor 2 (NCOR2).; type: functional
[31] = target: Photoreceptor-specific nuclear receptor (Homo sapiens, UniProt Q9Y5X4); assay: ligands suppressing NR2E3 nuclear receptor activity – biochemical, TR-FRET, dose response (AID 463256); type: functional
ORF 73 = ORF 73 (Human herpesvirus 8, UniProt O40947); assay: KSHV LANA DNA-binding disruption – biochemical, fluorescence polarization, cherry-picked samples, dose response (AID 504725); set-up: species or system Human gammaherpesvirus 8;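 also: fluorescence polarization of a labeled DNA duplex reporting LANA DNA binding; potency is for inhibitors that block LANA binding to the DNA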
[32] = target: T6, Heat shock factor protein 1 (Mus musculus, UniProt P38532); assay: enhancement of HSF1-driven luciferase signal – cell-based, NIH3T3, luminescence, dose retest, confirmation (AID 435004); type: functional;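 also: stress induced by proteasome inhibitor MG132 added 30 min after compound; luciferase reporter driven by HSF1 response element in NIH3T3 cells; actives raise luminescence as potentiators of the MG132 stress response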
T6 sequence (P38532 whole entry): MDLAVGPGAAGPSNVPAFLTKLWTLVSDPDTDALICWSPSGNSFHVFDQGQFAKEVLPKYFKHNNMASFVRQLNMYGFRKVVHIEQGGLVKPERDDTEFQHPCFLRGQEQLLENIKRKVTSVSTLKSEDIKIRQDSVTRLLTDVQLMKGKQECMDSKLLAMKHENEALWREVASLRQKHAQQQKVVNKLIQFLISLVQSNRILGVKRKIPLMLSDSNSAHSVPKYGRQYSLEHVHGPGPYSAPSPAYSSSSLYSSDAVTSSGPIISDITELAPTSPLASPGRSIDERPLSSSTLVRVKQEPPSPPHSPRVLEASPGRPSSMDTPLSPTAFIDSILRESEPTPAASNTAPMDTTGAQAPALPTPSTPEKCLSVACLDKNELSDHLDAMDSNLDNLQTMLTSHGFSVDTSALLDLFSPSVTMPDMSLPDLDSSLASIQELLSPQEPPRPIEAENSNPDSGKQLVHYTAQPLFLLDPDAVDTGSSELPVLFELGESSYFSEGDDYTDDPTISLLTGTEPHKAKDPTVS

Keap1/Nrf2 = Keap1/Nrf2 (Homo sapiens, UniProt Q14145); assay: disruptors of Keap1 binding to Nrf2 peptide – biochemical, fluorescence polarization, cherry-picked samples, dose response (AID 588683)

T3 sequence (P65502 whole entry): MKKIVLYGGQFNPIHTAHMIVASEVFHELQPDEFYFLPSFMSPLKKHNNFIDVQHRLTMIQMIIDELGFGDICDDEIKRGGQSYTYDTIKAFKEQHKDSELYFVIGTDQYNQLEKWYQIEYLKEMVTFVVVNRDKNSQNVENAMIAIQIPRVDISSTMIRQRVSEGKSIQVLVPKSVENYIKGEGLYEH
Sequence of Luciferin 4-monooxygenase (P08659 whole entry): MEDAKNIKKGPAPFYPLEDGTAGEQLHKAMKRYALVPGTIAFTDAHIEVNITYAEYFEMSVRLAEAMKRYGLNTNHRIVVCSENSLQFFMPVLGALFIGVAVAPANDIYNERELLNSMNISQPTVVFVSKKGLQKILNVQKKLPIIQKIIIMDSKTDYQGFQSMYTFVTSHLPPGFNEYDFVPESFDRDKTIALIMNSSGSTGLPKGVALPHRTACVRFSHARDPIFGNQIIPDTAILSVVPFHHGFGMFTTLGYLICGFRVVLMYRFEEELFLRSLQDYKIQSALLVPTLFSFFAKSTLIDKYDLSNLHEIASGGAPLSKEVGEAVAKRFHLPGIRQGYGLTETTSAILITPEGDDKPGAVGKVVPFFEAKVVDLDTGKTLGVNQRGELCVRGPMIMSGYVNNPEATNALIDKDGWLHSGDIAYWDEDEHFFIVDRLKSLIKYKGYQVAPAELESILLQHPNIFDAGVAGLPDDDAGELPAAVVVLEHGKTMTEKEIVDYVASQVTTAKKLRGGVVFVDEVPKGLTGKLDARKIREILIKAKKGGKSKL
Sequence of ORF 73 (O40947 whole entry): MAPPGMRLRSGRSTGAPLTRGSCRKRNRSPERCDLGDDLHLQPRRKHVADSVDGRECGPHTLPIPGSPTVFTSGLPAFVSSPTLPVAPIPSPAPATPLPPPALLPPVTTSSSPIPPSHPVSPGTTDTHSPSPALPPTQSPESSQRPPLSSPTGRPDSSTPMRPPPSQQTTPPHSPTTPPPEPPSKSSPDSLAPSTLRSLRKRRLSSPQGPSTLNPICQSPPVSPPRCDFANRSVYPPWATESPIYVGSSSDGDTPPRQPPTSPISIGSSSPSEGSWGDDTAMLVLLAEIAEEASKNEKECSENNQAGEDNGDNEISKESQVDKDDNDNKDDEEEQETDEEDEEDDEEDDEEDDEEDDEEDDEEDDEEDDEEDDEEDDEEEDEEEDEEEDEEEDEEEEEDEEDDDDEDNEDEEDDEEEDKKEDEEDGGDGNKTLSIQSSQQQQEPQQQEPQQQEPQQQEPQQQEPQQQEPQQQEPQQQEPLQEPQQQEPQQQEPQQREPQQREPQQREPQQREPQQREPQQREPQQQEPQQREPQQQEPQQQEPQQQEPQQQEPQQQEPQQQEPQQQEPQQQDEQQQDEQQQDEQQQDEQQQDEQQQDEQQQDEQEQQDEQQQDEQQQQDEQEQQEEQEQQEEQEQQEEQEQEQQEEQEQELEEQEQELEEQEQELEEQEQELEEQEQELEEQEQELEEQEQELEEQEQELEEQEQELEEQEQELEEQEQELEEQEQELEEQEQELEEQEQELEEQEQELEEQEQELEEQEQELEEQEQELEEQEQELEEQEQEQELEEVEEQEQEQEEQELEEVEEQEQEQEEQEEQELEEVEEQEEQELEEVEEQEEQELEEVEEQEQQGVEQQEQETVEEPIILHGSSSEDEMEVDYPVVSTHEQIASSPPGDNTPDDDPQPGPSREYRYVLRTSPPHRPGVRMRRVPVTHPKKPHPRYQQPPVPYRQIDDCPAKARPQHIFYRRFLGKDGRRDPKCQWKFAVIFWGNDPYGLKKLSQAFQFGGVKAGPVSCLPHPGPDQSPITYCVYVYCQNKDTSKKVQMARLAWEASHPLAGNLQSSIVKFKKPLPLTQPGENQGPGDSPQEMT
Sequence of Peroxisome proliferator-activated receptor gamma/Nuclear receptor corepressor 2 (P37231 whole entry): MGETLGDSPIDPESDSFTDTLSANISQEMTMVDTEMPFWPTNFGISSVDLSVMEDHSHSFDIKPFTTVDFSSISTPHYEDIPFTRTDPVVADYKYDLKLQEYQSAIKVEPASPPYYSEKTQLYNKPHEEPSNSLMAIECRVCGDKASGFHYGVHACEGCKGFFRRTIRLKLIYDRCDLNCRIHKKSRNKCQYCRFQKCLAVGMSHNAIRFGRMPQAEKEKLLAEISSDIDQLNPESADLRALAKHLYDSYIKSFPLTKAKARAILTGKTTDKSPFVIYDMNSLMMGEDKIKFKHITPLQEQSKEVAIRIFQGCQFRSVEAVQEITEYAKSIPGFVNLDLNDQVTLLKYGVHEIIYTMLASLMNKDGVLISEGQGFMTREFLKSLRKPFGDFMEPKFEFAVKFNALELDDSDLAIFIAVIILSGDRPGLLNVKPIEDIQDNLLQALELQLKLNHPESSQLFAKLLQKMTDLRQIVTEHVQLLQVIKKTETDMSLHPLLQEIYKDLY
Sequence of Peroxisome proliferator-activated receptor gamma/Nuclear receptor corepressor 2 (Q9Y618 whole entry): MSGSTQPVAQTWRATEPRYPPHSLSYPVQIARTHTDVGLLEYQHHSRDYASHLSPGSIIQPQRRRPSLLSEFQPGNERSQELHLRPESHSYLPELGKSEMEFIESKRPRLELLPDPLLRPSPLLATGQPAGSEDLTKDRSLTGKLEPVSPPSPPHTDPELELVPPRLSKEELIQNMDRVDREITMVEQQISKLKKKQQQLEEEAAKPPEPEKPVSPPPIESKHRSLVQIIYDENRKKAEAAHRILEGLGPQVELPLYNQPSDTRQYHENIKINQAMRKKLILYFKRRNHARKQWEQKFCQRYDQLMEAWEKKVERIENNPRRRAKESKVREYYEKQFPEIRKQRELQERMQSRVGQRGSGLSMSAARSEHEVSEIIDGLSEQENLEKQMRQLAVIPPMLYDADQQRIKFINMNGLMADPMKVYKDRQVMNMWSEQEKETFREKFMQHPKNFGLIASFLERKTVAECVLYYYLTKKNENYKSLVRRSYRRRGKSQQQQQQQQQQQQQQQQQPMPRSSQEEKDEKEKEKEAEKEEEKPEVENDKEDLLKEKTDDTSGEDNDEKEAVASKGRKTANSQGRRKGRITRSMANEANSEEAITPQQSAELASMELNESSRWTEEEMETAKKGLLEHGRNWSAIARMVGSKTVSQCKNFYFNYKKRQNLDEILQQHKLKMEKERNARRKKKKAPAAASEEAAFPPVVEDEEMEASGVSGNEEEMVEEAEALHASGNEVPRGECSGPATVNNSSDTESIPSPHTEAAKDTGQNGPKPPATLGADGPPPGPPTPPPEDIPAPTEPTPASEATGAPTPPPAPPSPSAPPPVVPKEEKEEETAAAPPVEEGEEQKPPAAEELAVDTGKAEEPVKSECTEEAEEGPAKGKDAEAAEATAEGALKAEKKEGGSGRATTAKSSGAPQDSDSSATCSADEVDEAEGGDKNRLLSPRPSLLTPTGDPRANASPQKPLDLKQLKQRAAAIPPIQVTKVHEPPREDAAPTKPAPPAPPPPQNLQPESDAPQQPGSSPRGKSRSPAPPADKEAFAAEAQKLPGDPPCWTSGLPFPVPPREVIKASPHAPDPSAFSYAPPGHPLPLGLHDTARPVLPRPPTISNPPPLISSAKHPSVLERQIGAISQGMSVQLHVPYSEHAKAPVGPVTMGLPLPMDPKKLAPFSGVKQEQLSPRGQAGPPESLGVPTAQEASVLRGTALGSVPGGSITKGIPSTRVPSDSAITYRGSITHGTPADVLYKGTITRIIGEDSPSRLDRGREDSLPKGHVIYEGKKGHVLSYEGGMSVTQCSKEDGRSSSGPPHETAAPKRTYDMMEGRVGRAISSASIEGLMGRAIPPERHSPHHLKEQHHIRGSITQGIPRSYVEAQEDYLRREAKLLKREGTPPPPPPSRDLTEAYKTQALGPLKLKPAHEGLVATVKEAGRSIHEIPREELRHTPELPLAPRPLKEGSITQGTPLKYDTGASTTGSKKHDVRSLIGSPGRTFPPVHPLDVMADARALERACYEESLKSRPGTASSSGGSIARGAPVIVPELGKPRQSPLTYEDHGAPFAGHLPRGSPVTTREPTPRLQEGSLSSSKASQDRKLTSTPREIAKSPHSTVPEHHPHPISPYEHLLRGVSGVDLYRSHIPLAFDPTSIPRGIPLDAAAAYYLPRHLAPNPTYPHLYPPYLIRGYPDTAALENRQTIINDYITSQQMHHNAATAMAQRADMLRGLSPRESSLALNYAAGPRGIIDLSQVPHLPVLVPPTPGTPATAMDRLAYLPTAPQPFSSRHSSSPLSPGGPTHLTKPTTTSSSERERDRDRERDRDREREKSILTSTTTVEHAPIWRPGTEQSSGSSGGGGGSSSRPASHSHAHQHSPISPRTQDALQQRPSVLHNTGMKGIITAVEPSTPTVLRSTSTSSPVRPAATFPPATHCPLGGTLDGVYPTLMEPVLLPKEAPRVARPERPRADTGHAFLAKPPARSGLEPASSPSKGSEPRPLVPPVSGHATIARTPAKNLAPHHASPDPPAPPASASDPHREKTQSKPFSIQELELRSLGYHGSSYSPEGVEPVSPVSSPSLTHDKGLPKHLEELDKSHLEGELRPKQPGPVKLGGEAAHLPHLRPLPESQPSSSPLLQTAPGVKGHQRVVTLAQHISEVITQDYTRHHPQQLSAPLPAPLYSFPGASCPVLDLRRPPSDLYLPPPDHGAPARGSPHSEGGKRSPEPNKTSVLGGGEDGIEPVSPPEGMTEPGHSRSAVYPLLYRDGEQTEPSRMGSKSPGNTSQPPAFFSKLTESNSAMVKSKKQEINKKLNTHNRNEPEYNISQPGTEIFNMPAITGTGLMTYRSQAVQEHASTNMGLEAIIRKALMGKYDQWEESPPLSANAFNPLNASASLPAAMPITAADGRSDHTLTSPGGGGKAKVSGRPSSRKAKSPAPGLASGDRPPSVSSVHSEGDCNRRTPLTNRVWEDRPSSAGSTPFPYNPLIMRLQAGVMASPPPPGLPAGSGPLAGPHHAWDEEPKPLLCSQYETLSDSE

With `COc1cc2c(cc1NC(=O)c1cccc([N+](=O)[O-])c1C)oc1ccccc12` the AC50 [1] was 2.65 µM (active) and the AC50 [2] was 41.4 µM (active).

With `Cc1ccc2nc(NNC(=O)c3ccc(S(=O)(=O)N4CCc5ccccc5C4)cc3)sc2c1` the IC50 [3] was 3.03 µM (active), the EC50 [4] was 0.499 µM (active) and the EC50 (cells [5]) was 13.5 µM (active). The IC50 [6] was 2.7 µM (active), the EC50 (Streptokinase A) was > 150 µM (not active) and the EC50 [7] was 0.904 µM (active). The EC50 (cells [8]) was > 350 µM (not active), the EC50 [9] was 3.65 µM (active) and the EC50 (Streptococcus) was > 150 µM (not active). For the same compound, the AC50 [1] was 3.74 µM (active), the EC50 [10] was > 100 µM (inactive) and the AC50 (INS1) was 2.17 µM (active). The AC50 [11] was 1.62 µM (active), the AC50 [12] was 2.88 µM (active) and the AC50 [13] was 1.78 µM (active). The IC50 [14] was 9.9 µM (active), the IC50 [15] was 52.7 µM (active) and the AC50 (Paired box protein Pax-8) was 3.01 µM (active). For the same compound, the AC50 [16] was 6.18 µM (active), the AC50 [17] was 18.3 µM (active) and the AC50 [18] was 19.5 µM (active). For the same compound, the AC50 [19] was 14.8 µM (active), the AC50 [20] was 31.1 µM (active) and the AC50 [21] was 5.81 µM (active). The AC50 [22] was 8.28 µM (active), the AC50 [23] was 31.1 µM (active) and the AC50 [24] was 13.7 µM (active). For the same compound, the AC50 [25] was 9.99 µM (active), the AC50 [26] was 9.32 µM (active) and the AC50 (Escherichia coli) was 39 µM (active).

In the case of `O=c1[nH]c2c(s1)C=Nc1ccccc1N2`, the EC50 [27] is reported as 2.6 µM (inconclusive), the EC50 [28] is reported as 1.23 µM (inconclusive) and the EC50 (Streptokinase A) is reported as > 150 µM (not active). The EC50 [29] was > 112 µM (not active), the IC50 [30] was 2.26 µM (active) and the IC50 [31] was 3.14 µM (active). For the same compound, the AC50 (ORF 73) was 5.1 µM (active), the EC50 [32] was > 260 µM (inactive) and the AC50 (Keap1/Nrf2) was 9.53 µM (active).
